Test results reported in patent US20250388589A1, “TRICYCLIC HETEROCYCLIC DERIVATIVES, COMPOSITIONS AND USES THEREOF” (Danatlas Pharmaceuticals Co., Ltd., priority 2022, published 2025).

What was measured:
[1] = test system: Kuramochi cell line; assay: Cell Viability Assay (Cell Titer-Glo, 7 days); assay type: cell-based; conditions: 168 h, Kuramochi cells, 7 days incubation, read-out: PARG Cell viability (IC50)
In short: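 IC50 from a four-parameter fit of CellTiter-Glo luminescence, scaled between DMSO-treated (high) and medium-only (low) wells. Kuramochi cells (400/well, RPMI/10% FBS) exposed 7 days at 37 °C to 9 concentrations, 3-fold steps, in duplicate.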

[2] = molecular target: hPARG (C-terminal His6-tag) (Homo sapiens (Human), UniProt Q86W56); assay: PARG Enzymatic Activity Assay (HTRF); assay type: biochemical; conditions: hPARG 65 pM final, biotinylated-NAD ribosylated PARP1 8 nM final
Sequence of hPARG (C-terminal His6-tag) (Q86W56 whole entry): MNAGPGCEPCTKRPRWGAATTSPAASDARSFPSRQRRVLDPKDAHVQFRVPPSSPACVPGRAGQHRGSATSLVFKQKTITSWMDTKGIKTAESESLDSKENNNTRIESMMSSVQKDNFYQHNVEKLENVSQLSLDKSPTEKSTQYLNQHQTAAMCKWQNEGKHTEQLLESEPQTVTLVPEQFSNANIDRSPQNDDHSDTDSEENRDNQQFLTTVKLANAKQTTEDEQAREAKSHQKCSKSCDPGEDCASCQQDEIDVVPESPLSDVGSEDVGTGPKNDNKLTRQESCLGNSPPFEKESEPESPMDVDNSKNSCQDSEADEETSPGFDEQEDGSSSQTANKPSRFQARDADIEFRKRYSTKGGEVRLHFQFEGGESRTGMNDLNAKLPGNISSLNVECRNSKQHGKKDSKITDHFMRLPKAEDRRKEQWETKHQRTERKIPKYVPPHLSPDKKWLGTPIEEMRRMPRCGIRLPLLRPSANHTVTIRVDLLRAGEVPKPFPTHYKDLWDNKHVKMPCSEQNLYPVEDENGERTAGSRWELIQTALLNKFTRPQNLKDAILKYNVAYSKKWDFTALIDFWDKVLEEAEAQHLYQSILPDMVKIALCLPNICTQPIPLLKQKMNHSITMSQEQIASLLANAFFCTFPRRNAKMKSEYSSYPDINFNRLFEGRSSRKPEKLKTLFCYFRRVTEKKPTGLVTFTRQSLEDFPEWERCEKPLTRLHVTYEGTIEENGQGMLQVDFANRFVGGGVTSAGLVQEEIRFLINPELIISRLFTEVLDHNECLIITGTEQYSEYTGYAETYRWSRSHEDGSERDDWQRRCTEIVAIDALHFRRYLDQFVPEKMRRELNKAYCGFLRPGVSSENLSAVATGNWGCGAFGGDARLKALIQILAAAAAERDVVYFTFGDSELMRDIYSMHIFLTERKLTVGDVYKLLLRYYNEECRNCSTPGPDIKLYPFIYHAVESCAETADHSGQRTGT
In short: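 Readout is time-resolved fluorescence at 620 and 665 nm after 60 min RT detection with streptavidin-Eu cryptate and anti-6HIS-XL665; IC50 by 4-parameter fit, 1% DMSO and no-enzyme controls. Reaction: 8 nM final ribosylated PARP1 substrate for 10 min RT, following 60 min RT enzyme (65 pM)–compound preincubation in Tris pH 7.4 buffer with EDTA, DTT, KCl.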

Row | SMILES | IC50 [1] [nM] | IC50 [2] [nM]
1 | Cc1nnc(-n2c3cc(S(=O)(=O)NC4(C#N)CC4)ccc3c3c(N4CCN(C(=O)C5CC5)CC4)ncnc32)s1 [Example 185, N-(1-Cyanocyclopropyl)-4-(4-(cyclopropanecarbonyl)piperazin-1-yl)-9-(5-methyl-1,3,4-thiadiazol-2-yl)-9H-pyrimido[4,5-b]indole-7-sulfonamide] | 100 to 1000 | 100 to 1000
2 | CO[C@@H]1CCN(c2ncnc3c2c2ccc(S(=O)(=O)NC4(C#N)CC4)cc2n3-c2nnc(C(F)F)s2)C[C@@H]1F [Example 171, N-(1-Cyanocyclopropyl)-9-(5-(difluoromethyl)-1,3,4-thiadiazol-2-yl)-4-((3S,4R)-3-fluoro-4-methoxypiperidin-1-yl)-9H-pyrimido[4,5-b]indole-7-sulfonamide] | < 100 | < 100
3 | C[C@@H](O)C(=O)N1CCC(c2ncnc3c2c2ccc(S(=O)(=O)NC4(C#N)CC4)cc2n3-c2nnc(C(F)F)s2)CC1 [Example 107, (R)-N-(1-Cyanocyclopropyl)-9-(5-(difluoromethyl)-1,3,4-thiadiazol-2-yl)-4-(1-(2-hydroxypropanoyl)piperidin-4-yl)-9H-pyrimido[4,5-b]indole-7-sulfonamide] | < 100 | < 100
4 | CN(C)C(=O)N1CCN(c2ncnc3c2c2ccc(S(=O)(=O)NC4(C#N)CC4)cc2n3-c2nnc(C(F)F)s2)CC1 [Example 6, 4-(7-(N-(1-Cyanocyclopropyl)sulfamoyl)-9-(5-(difluoromethyl)-1,3,4-thiadiazol-2-yl)-9H-pyrimido[4,5-b]indol-4-yl)-N,N-dimethylpiperazine-1-carboxamide] | < 100 | < 100
5 | CN1CCC[C@H]1C(=O)N1CCC(c2ncnc3c2c2ccc(S(=O)(=O)NC4(C#N)CC4)cc2n3-c2nnc(C(F)F)s2)CC1 [Example 112, N-(1-cyanocyclopropyl)-9-(5-(difluoromethyl)-1,3,4-thiadiazol-2-yl)-4-(1-(methyl-L-prolyl)piperidin-4-yl)-9H-pyrimido[4,5-b]indole-7-sulfonamide] | 100 to 1000 | < 100
6 | N#CC1(NS(=O)(=O)c2ccc3c4c(C5CCN(C(=O)[C@@H]6CCCO6)CC5)ncnc4n(-c4nnc(C(F)F)s4)c3c2)CC1 [Example 111, (S)-N-(1-cyanocyclopropyl)-9-(5-(difluoromethyl)-1,3,4-thiadiazol-2-yl)-4-(1-(tetrahydrofuran-2-carbonyl)piperidin-4-yl)-9H-pyrimido[4,5-b]indole-7-sulfonamide] | < 100 | < 100
7 | CO[C@@H]1CCN(C(=O)N2CCC(c3ncnc4c3c3ccc(S(=O)(=O)NC5(C#N)CC5)cc3n4-c3nnc(C(F)F)s3)CC2)C1 [Example 135, (R)-N-(1-Cyanocyclo-propyl)-9-(5-(difluoromethyl)-1,3,4-thiadiazol-2-yl)-4-(1-(3-methoxypyrrolidine-1-carbonyl)piperidin-4-yl)-9H-pyrimido [4,5-b]indole-7-sulfonamide] | < 100 | < 100
8 | CC(C)C(=O)N1CC=C(c2ncnc3c2c2ccc(S(=O)(=O)NC4(C#N)CC4)cc2n3-c2nnc(C(F)F)s2)CC1 [Example 74, N-(1-Cyanocyclopropyl)-9-(5-(difluoromethyl)-1,3,4-thiadiazol-2-yl)-4-(1-isobutyryl-1,2,3,6-tetrahydropyridin-4-yl)-9H-pyrimido[4,5-b]indole-7-sulfonamide] | < 100 | < 100
9 | N#CC1(NS(=O)(=O)c2ccc3c4c(N5CCN(C(=O)C6(F)CCC6)CC5)ncnc4n(-c4nnc(C(F)F)s4)c3c2)CC1 [Example 68, N-(1-Cyanocyclopropyl)-9-(5-(difluoromethyl)-1,3,4-thiadiazol-2-yl)-4-(4-(1-fluorocyclobutane-1-carbonyl)piperazin-1-yl)-9H-pyrimido[4,5-b]indole-7-sulfonamide] | 100 to 1000 | < 100
10 | CC(C)C(=O)N1CC2(C1)CN(c1ncnc3c1c1ccc(S(=O)(=O)NC4(C#N)CC4)cc1n3-c1nnc(C(F)F)s1)C2 [Example 23, N-(1-Cyanocyclopropyl)-9-[5-(difluoromethyl)-1,3,4-thiadiazol-2-yl]-4-[2-(2-methylpropanoyl)-2,6-diazaspiro[3.3]heptan-6-yl]pyrimido[4,5-b]indole-7-sulfonamide] | 100 to 1000 | < 100
11 | N#CC1(NS(=O)(=O)c2cc3c(cc2F)c2c(N4CCC(O)CC4)ncnc2n3-c2nnc(C(F)F)s2)CC1 [Example 55, N-(1-Cyanocyclopropyl)-9-(5-(difluoromethyl)-1,3,4-thiadiazol-2-yl)-6-fluoro-4-(4-hydroxypiperidin-1-yl)-9H-pyrimido[4,5-b]indole-7-sulfonamide] | < 100 | < 100
12 | CC1(NS(=O)(=O)c2ccc3c4c(C5CCN(C(=O)N6CC[C@@H](O)C6)CC5)ncnc4n(-c4nnc(C(F)F)s4)c3c2)CC1 [Example 132, (R)-9-(5-(Difluoromethyl)-1,3,4-thiadiazol-2-yl)-4-(1-(3-hydroxypyrrolidine-1-carbonyl)piperidin-4-yl)-N-(1-methylcyclopropyl)-9H-pyrimido[4,5-b]indole-7-sulfonamide] | < 100 | < 100
13 | CC(C)C(=O)N1C[C@@H](C)N(c2ncnc3c2c2ccc(S(=O)(=O)NC4(C)CC4)cc2n3-c2nnc(C(F)F)s2)C[C@@H]1C [Example 64, 9-(5-(Difluoromethyl)-1,3,4-thiadiazol-2-yl)-4-((2R,5S)-4-isobutyryl-2,5-dimethylpiperazin-1-yl)-N-(1-methylcyclopropyl)-9H-pyrimido[4,5-b]indole-7-sulfonamide] | < 100 | < 100
14 | CC(C)CN1CCN(c2ncnc3c2c2ccc(S(=O)(=O)NC4(C#N)CC4)cc2n3-c2nnc(C(F)F)s2)CC1=O [Example 158, N-(1-cyanocyclopropyl)-9-(5-(difluoromethyl)-1,3,4-thiadiazol-2-yl)-4-(4-isobutyl-3-oxopiperazin-1-yl)-9H-pyrimido[4,5-b]indole-7-sulfonamide] | < 100 | < 100
15 | CN(C)C(=O)N1CC=C(c2ccnc3c2c2ccc(S(=O)(=O)NC4(C)CC4)cc2n3-c2nnc(C(F)F)s2)CC1 [Example 194, 4-(9-(5-(Difluoromethyl)-1,3,4-thiadiazol-2-yl)-7-(N-(1-methylcyclopropyl)sulfamoyl)-9H-pyrido[2,3-b]indol-4-yl)-N,N-dimethyl-3,6-dihydropyridine-1(2H)-carboxamide] | 100 to 1000 | 100 to 1000
16 | CN(C)C(=O)N1CCC(c2ncnc3c2c2cc(F)c(S(=O)(=O)NC4(C#N)CC4)cc2n3-c2nnc(C(F)F)s2)CC1 [Example 89, 4-(7-(N-(1-Cyanocyclopropyl)sulfamoyl)-9-(5-(difluoromethyl)-1,3,4-thiadiazol-2-yl)-6-fluoro-9H-pyrimido[4,5-b]indol-4-yl)-N,N-dimethylpiperidine-1-carboxamide] | < 100 | < 100
17 | CC(C)C(=O)N1CCN(c2ncnc3c2c2ccc(S(=O)(=O)NC4(C#N)CC4)cc2n3-c2nnc(C(F)F)s2)C[C@H]1C [Example 60, (R)-N-(1-cyanocyclopropyl)-9-(5-(difluoromethyl)-1,3,4-thiadiazol-2-yl)-4-(4-isobutyryl-3-methylpiperazin-1-yl)-9H-pyrimido[4,5-b]indole-7-sulfonamide] | 100 to 1000 | 100 to 1000
